Values joined by “and” are separate entries in the source; they are usually repeats but may differ in a detail not shown here. Identical values can stand only once. Like-named read-outs stand apart in the source and are kept apart here.
Legend:
[1] = system: IL-1, TNF, IL-1 RA and sTNFr; assay: Serum IL-1, TNF, IL-1RA and sTNFr after Doxycycline injection in uninfected mice (Group 1); assay type: in vivo, BALB/c mice; details: 58 mg/kg i.m. every day for 4 days
[2] = 58 mg/kg i.m. during 17 day period without virus injection
[3] = 7 day period without viral infection
[4] = system: IL-1, IL-1Ra, TNF and soluble TNF receptor (sTNFR); parameters: species or system BALB/c mice; details: mouse, in vivo
[5] = system: Lassa virus strain Josiah; parameters: species or system BALB/c mice; details: mouse, in vivo
Dengue virus, type 2 = system: Dengue virus, type 2; parameters: species or system BALB/c mice; details: mouse, in vivo
[6] = system: IL-1, TNF, IL-1RA and sTNFr; assay: Serum IL-1, TNF, IL-1RA and sTNFr during treatment of Dengue virus infection (Example 2); assay type: in vivo, BALB/c mice
[7] = system: Marburg virus strain Popp; parameters: species or system guinea-pigs; details: guinea pig, in vivo; monohydrate
[8] = day 0, 58 mg/kg i.m. daily day 2-5 after infection (Group 3)
[9] = day 0, 58 mg/kg i.m. daily day 3-5 after infection (Group 4)
[10] = day 1, 58 mg/kg i.m. daily day 2-5 after infection (Group 3)
[11] = day 1, 58 mg/kg i.m. daily day 3-5 after infection (Group 4)
[12] = day 2, 58 mg/kg i.m. daily day 2-5 after infection (Group 3)
[13] = day 2, 58 mg/kg i.m. daily day 3-5 after infection (Group 4)
[14] = day 3, 58 mg/kg i.m. daily day 2-5 after infection (Group 3)
[15] = day 3, 58 mg/kg i.m. daily day 3-5 after infection (Group 4)
[16] = day 4, 58 mg/kg i.m. daily day 2-5 after infection (Group 3)
[17] = day 4, 58 mg/kg i.m. daily day 3-5 after infection (Group 4)
[18] = day 5, 58 mg/kg i.m. daily day 2-5 after infection (Group 3)
[19] = day 5, 58 mg/kg i.m. daily day 3-5 after infection (Group 4)

## CC1c2cccc(O)c2C(=O)C2=C(O)C3(O)C(=O)C(C(N)=O)=C(O)C(N(C)C)C3C(O)C21.O (centres unmarked) [Doxycycline, 4-(Dimethylamino)-1,4,4a,5,5a,6,11,12a-octahydro-3,5,10,12,12a-pentahydroxy-6-methyl-1, 11-dioxo-2-naphthacenecarboxamide monohydrate]
[1]; day 0, before the injection
  I + II: 0.166
  IL-1: 2.95 pg/mL
  IL-1/IL-IRA (I): 0.098
  IL-IRA: 30 pg/mL
  TNF: 1.17 pg/mL
  TNF/sTNFrl (II): 0.068
  sTNFrl: 17 pg/mL
[1]; day 1 after the injection
  I + II: 0.187
  IL-1: 20.62 pg/mL
  IL-1/IL-IRA (I): 0.115
  IL-IRA: 180 pg/mL
  TNF: 4.68 pg/mL
  TNF/sTNFrl (II): 0.072
  sTNFrl: 85 pg/mL
[1]; day 2 after the injection
  I + II: 0.753
  IL-1: 17.43 pg/mL
  IL-1/IL-IRA (I): 0.291
  IL-IRA: 60 pg/mL
  TNF: 17.55 pg/mL
  TNF/sTNFrl (II): 0.462
  sTNFrl: 38 pg/mL
[1]; day 3 after the injection
  I + II: 0.486
  IL-1: 17.48 pg/mL
  IL-1/IL-IRA (I): 0.219
  IL-IRA: 80 pg/mL
  TNF: 9.36 pg/mL
  TNF/sTNFrl (II): 0.267
  sTNFrl: 35 pg/mL
[1]; day 4 after the injection
  I + II: 0.318
  IL-1: 17.93 pg/mL
  IL-1/IL-IRA (I): 0.102
  IL-IRA: 175 pg/mL
  TNF: 8.19 pg/mL
  TNF/sTNFrl (II): 0.216
  sTNFrl: 38 pg/mL
[2]
  toxicity to control groups: not toxic
[2]; of 6 guinea pigs
  survival: 6
[3]
  toxicity to control groups: not toxic
[3]; of 20 mice
  death: 0
  survival: 20
[4]
  increase of the ratio of IL-1/IL-1Ra over the base level: about 5 fold
[5]
  survival: 70%
[5]; 58 mg/kg
  death: 6
Dengue virus, type 2
  Survival/dead: 0/10
  mice dead on 4 day: 4 mice - on 4 day
  mice dead on 5 day: 5 mice - on 5 day
  mice dead on 6 day: 1 mice - on 6 day
  mice dead on day 6: 10 mice on day 6
Dengue virus, type 2; 58 mg/kg, monohydrate
  Survival/dead: 10/0 and 0/10 and 6/4 and 2/4 and 1/3 and 0/1
[6]; [8]
  I + II: 0.151
  IL-1: 2.95 pg/mL
  IL-1/IL-IRA (I): 0.083
  IL-IRA: 30 pg/mL
  TNF: 1.17 pg/mL
  TNF/sTNF (II): 0.068
  sTNFrl: 17 pg/mL
[6]; [9]
  I + II: 0.151
  IL-1: 2.95 pg/mL
  IL-1/IL-IRA (I): 0.083
  IL-IRA: 30 pg/mL
  TNF: 1.17 pg/mL
  TNF/sTNF (II): 0.068
  sTNFrl: 17 pg/mL
[6]; [10]
  I + II: 0.407
  IL-1: 10.6 pg/mL
  IL-1/IL-IRA (I): 0.151
  IL-IRA: 70 pg/mL
  TNF: 8.19 pg/mL
  TNF/sTNF (II): 0.256
  sTNFrl: 32 pg/mL
[6]; [11]
  I + II: 0.407
  IL-1: 10.6 pg/mL
  IL-1/IL-IRA (I): 0.151
  IL-IRA: 70 pg/mL
  TNF: 8.19 pg/mL
  TNF/sTNF (II): 0.256
  sTNFrl: 32 pg/mL
[6]; [12]
  I + II: 0.985
  IL-1: 16.8 pg/mL
  IL-1/IL-IRA (I): 0.258
  IL-IRA: 65 pg/mL
  TNF: 26.9 pg/mL
  TNF/sTNF (II): 0.727
  sTNFrl: 37 pg/mL
[6]; [13]
  I + II: 0.985
  IL-1: 16.8 pg/mL
  IL-1/IL-IRA (I): 0.258
  IL-IRA: 65 pg/mL
  TNF: 26.9 pg/mL
  TNF/sTNF (II): 0.727
  sTNFrl: 37 pg/mL
[6]; [14]
  I + II: 0.643
  IL-1: 17.9 pg/mL
  IL-1/IL-IRA (I): 0.211
  IL-IRA: 85 pg/mL
  TNF: 19.89 pg/mL
  TNF/sTNF (II): 0.432
  sTNFrl: 46 pg/mL
[6]; [15]
  I + II: 1.161
  IL-1: 26.7 pg/mL
  IL-1/IL-IRA (I): 0.381
  IL-IRA: 70 pg/mL
  TNF: 35.1 pg/mL
  TNF/sTNF (II): 0.780
  sTNFrl: 45 pg/mL
[6]; [16]
  I + II: 0.809
  IL-1: 24.18 pg/mL
  IL-1/IL-IRA (I): 0.318
  IL-IRA: 76 pg/mL
  TNF: 24.57 pg/mL
  TNF/sTNF (II): 0.491
  sTNFrl: 50 pg/mL
[6]; [17]
  I + II: 1.375
  IL-1: 30.42 pg/mL
  IL-1/IL-IRA (I): 0.400
  IL-IRA: 76 pg/mL
  TNF: 46.8 pg/mL
  TNF/sTNF (II): 0.975
  sTNFrl: 48 pg/mL
[6]; [18]
  I + II: 4.14
  IL-1: 30.42 pg/mL
  IL-1/IL-IRA (I): 0.390
  IL-IRA: 78 pg/mL
  TNF: 262.5 pg/mL
  TNF/sTNF (II): 3.75
  sTNFrl: 70 pg/mL
[6]; [19]
  I + II: 5.256
  IL-1: 36.6 pg/mL
  IL-1/IL-IRA (I): 0.435
  IL-IRA: 84 pg/mL
  TNF: 337.5 pg/mL
  TNF/sTNF (II): 4.821
  sTNFrl: 70 pg/mL
[7]
  m.t.d. (mean time to death): 7.6 and 8.54 and 7.69
